Results taken from article PMC6265301, “Engineering Saccharomyces cerevisiae for co-utilization of D-galacturonic acid and D-glucose from citrus peel waste” (Nature Communications, 2018).

What was measured:
[1] = molecular target: T1, GAR1 (Trichoderma reesei, UniProt Q3ZFI7); test: reductase activity in yeast lysate; type: biochemical
T1 construct: codon-optimized, expressed in S. cerevisiae BY4741, lysate
T1 sequence (Q3ZFI7 1-309): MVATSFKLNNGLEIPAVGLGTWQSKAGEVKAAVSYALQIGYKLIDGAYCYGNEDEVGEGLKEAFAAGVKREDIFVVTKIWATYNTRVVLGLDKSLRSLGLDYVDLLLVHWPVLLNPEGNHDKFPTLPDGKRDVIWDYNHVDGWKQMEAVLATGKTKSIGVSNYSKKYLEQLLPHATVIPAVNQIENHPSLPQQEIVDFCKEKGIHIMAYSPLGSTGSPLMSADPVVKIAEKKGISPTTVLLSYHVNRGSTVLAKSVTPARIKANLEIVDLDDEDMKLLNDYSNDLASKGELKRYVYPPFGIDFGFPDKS

[2] = molecular target: T2, uronate dehydrogenase (UDH) (Pseudomonas syringae group genomosp. 3, UniProt Q888H1); test: conversion to meso-galactaric acid by UDH-expressing yeast, HPLC; type: cell-based; conditions: orange peel hydrolysate, GatA co-expressed
T2 construct: genomically integrated, expressed in S. cerevisiae with GatA
T2 sequence (Q888H1 1-275): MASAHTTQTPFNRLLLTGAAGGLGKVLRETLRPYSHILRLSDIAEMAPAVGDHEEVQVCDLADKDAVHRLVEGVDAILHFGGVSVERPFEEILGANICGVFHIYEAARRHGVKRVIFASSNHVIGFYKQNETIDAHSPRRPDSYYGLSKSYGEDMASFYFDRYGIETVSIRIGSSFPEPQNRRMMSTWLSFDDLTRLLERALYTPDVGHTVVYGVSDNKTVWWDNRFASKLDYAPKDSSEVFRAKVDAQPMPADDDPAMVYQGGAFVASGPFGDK

[3] = molecular target: T3, GAAA (Aspergillus niger, UniProt A8DRH9); test: reductase activity in yeast lysate; type: biochemical
T3 construct: codon-optimized, expressed in S. cerevisiae BY4741, lysate
T3 sequence (A8DRH9 1-412): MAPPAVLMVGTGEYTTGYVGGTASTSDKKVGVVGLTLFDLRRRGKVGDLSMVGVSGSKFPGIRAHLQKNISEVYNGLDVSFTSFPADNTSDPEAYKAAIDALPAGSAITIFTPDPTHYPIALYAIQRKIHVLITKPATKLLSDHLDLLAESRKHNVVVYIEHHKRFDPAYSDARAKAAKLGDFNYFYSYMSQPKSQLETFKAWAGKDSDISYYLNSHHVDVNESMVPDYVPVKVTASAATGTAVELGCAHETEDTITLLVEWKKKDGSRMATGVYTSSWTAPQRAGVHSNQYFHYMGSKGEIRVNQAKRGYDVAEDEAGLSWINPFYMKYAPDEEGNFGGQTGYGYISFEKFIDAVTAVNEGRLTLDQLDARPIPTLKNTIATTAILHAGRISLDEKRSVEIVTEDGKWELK

[4] = molecular target: T4, GAAC (Aspergillus niger, UniProt A8DRH7); test: aldolase activity in yeast lysate; type: biochemical
T4 construct: codon-optimized, expressed in S. cerevisiae BY4741, lysate
T4 sequence (A8DRH7 1-335): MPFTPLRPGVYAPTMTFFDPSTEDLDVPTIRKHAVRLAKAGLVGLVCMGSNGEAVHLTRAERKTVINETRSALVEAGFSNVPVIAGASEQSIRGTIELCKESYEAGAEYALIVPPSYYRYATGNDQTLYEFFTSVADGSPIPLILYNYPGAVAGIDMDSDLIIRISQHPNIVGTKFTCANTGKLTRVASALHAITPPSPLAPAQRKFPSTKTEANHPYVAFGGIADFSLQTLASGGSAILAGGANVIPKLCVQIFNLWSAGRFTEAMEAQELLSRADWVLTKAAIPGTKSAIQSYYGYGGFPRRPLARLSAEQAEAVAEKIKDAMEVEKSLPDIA

Question: With `O=C(O)[C@H]1OC(O)[C@H](O)[C@@H](O)[C@H]1O` (stereo partly drawn) [D-galUA] as the molecule, how does the “reductase activity in yeast lysate” value [1] read?
Answer: D-galacturonate reductase from Trichoderma reesei (GAR1)

Question: What about the “conversion to meso-galactaric acid by UDH-expressing yeast, HPLC” value [2] of the same molecule?
Answer: conversion of D-galUA to meso-galactaric acid was observed in the UDH and GatA co-expression strain

Question: And the “reductase activity in yeast lysate” value [3]?
Answer: lower specific activities measured for GAAA compared to GAR1 in cell lysate

Question: Which “aldolase activity in yeast lysate” value [4] does the source give for `O=C(O)C(=O)C[C@H](O)[C@@H](O)CO` [2-keto-3-deoxy-L-galactonate] here?
Answer: 2-keto-3-deoxy-L-galactonate aldolase from Aspergillus niger (GAAC)
